Laboratory results from US7691805B2, “Antimicrobial compounds” (Neobiotics AB, priority 2004, dated 2010).
Non-standard residues stand in square brackets, D forms with d. No end group written: not given here. dPhg = N[C@@H](C(=O)O)c1ccccc1; Phg = N[C@H](C(=O)O)c1ccccc1; code Z = not defined here; Orn = NCCC[C@H](N)C(=O)O; Mpa = O=C(O)CCS

How the values were obtained:
bacteria = experiment: Anti-bacterial activity (tables of particularly interesting compounds); format: cell-based; set-up: key: + indicates that the compound show effects
Streptococcus: group A = experiment: Agar well diffusion; details: 40 ul of 1 mg/ml in DMSO per well
[1] = tested on: α-haemolytic Streptococci; experiment: Agar well diffusion; details: 40 ul of 1 mg/ml in DMSO per well
[2] = tested on: Staphylococci incl. multiresistant MRSA; experiment: Agar well diffusion; details: 40 ul of 1 mg/ml in DMSO per well
[3] = tested on: E. coli and other Gram-negatives; experiment: Agar well diffusion; details: E. coli and other Gram-negatives; 40 ul of 1 mg/ml in DMSO per well
Streptococcus: group B = experiment: Agar well diffusion; details: 40 ul of 1 mg/ml in DMSO per well
MRSA = experiment: Growth inhibition of clinical isolates; details: approximately 100 strains of MRSA, several with additional resistance markers
L. monocytogenes = experiment: Agar well diffusion; details: 40 ul of 1 mg/ml in DMSO per well
S. pneumoniae = experiment: Agar well diffusion; details: 40 ul of 1 mg/ml in DMSO per well
Streptococcus: group G = experiment: Agar well diffusion; details: 40 ul of 1 mg/ml in DMSO per well
[4] = tested on: CNS incl. resistant and multiresistant MRSE; experiment: Agar well diffusion; details: 40 ul of 1 mg/ml in DMSO per well
Streptococcus: group C = experiment: Agar well diffusion; details: 40 ul of 1 mg/ml in DMSO per well
poliovirus type 1 = format: cell-based; details: 0.4 mM in 1% DMSO; analysed in the same way as Cystapep 1
[5] = tested on: HSV-1 F (Herpes Simplex Virus); experiment: Antiviral inhibition analysis and plaque counting test in GMK AH 1 cells; format: cell-based; details: 0.4 mM in 1% DMSO; analysed in the same way as Cystapep 1
virus = experiment: Anti-viral activity (tables of particularly interesting compounds); format: cell-based; set-up: key: + indicates that the compound show effects; details: compounds listed by R4 or R1 residue
[6] = compounds listed by R4 or R1 residue
[7] = peptide analogues and cyclic compounds

How did the “Activity Anti-bacterial” value (bacteria; [6]) turn out when `C=C(C(=O)NCC(NC(=O)C(CC(C)C)NC(=O)C(CCCNC(=N)N)NC(=O)OCc1ccccc1)C(C)C)c1ccncc1` (centres unmarked) [2-(4-pyridyl)acroyl] was run?
The value was “+”.

`CC(C)CC(NC(=O)C(CCCNC(=N)N)NC(=O)OCc1ccccc1)C(=O)NC(CNC(=O)C=CC=Cc1ccccc1)C(C)C` (centres unmarked) [5-phenylpenta-2,4-dienoyl] was tested. Which “Activity Anti-bacterial” value (bacteria; [6]) did it give?
The value was “+”.

With `CC(=O)NC(Cc1ccccc1)C(=O)NCC(NC(=O)C(CC(C)C)NC(=O)C(CCCNC(=N)N)NC(=O)OCc1ccccc1)C(C)C` (centres unmarked) [(AcPhe^5)Cp1] as the compound, how does the antibacterial effect (Streptococcus: group A) read?
Its antibacterial effect is “+”.

What about the antibacterial effect [1] of the same compound?
Its antibacterial effect is “−”.

And the antibacterial effect [2]?
Its antibacterial effect is “+”.

And the antibacterial effect [3]?
The antibacterial effect was “−”.

And the antibacterial effect (Streptococcus: group B)?
Its antibacterial effect is “+”.

What about the “growth inhibition of MRSA strains” value (MRSA) of the same compound?
The value was “strongly inhibited in their growth”.

What about the antibacterial effect (L. monocytogenes) of the same compound?
The antibacterial effect was “+”.

What about the antibacterial effect (S. pneumoniae) of the same compound?
The antibacterial effect was “+”.

And the antibacterial effect (Streptococcus: group G)?
The antibacterial effect was “+”.

And the antibacterial effect [4]?
The antibacterial effect was “+”.

And the antibacterial effect (Streptococcus: group C)?
Its antibacterial effect is “+”.

Which antibacterial effect [1] does the source give for `CC(C)C(CNC(=O)/C=C/c1ccccc1)NC(=O)CNC(=O)C(CCCNC(=N)N)NC(=O)OCc1ccccc1` (centres unmarked) [(Gly^3)Cp1] here?
The antibacterial effect was “−”.

What about the antibacterial effect [2] of the same compound?
The antibacterial effect was “+”.

And the antibacterial effect (Streptococcus: group B)?
The antibacterial effect was “+”.

What about the “growth inhibition of MRSA strains” value (MRSA) of the same compound?
Its value is “strongly inhibited in their growth”.

What about the antibacterial effect [4] of the same compound?
The antibacterial effect was “+”.

What about the antibacterial effect (Streptococcus: group C) of the same compound?
Its antibacterial effect is “+”.

What does the source list for `CC(C)CC(CNC(=O)/C=C/c1ccccc1)NC(=O)C(CC(C)C)NC(=O)C(CCCNC(=N)N)NC(=O)OCc1ccccc1` (centres unmarked) [(Leu^4)Cp1]?
antibacterial effect (Streptococcus: group A): +; antibacterial effect [1]: −; antibacterial effect [2]: +; effect against polio (poliovirus type 1): found to have effect; effect against HSV-1 [5]: found to have effect; antibacterial effect [3]: −; antibacterial effect (Streptococcus: group B): +; growth inhibition of MRSA strains (MRSA): strongly inhibited in their growth; antibacterial effect (S. pneumoniae): +; antibacterial effect (Streptococcus: group G): +; antibacterial effect [4]: +; antibacterial effect (Streptococcus: group C): +

What does the source list for `CC(C)CC(NC(=O)C(CCCNC(=N)N)NC(=O)OCc1ccccc1)C(=O)NC(CNC(=O)/C=C/c1ccccc1)Cc1ccccc1` (centres unmarked) [(Phe^4)Cp1]?
antibacterial effect (Streptococcus: group A): +; antibacterial effect [1]: −; antibacterial effect [2]: +; effect against polio (poliovirus type 1): found to have effect; effect against HSV-1 [5]: found to have effect; antibacterial effect [3]: −; antibacterial effect (Streptococcus: group B): +; growth inhibition of MRSA strains (MRSA): strongly inhibited in their growth; antibacterial effect (S. pneumoniae): +; antibacterial effect (Streptococcus: group G): +; antibacterial effect [4]: +; antibacterial effect (Streptococcus: group C): +

What does the source list for `CC(=O)N[C@H](Cc1ccccc1)C(=O)NCC(NC(=O)C(CC(C)C)NC(=O)C(CCCNC(=N)N)NC(=O)OCc1ccccc1)C(C)C` (stereo partly drawn) [Acetyl-D-phenylalanoyl]?
Activity Anti-viral (virus): +; Activity Anti-bacterial (bacteria; [6]): +

`CC(=O)N[C@@H](Cc1ccccc1)C(=O)NCC(NC(=O)C(CC(C)C)NC(=O)C(CCCNC(=N)N)NC(=O)OCc1ccccc1)C(C)C` (stereo partly drawn) [Acetyl-L-phenylalanoyl] was tested. Which “Activity Anti-viral” value (virus) did it give?
The value was “+”.

What about the “Activity Anti-bacterial” value (bacteria; [6]) of the same compound?
Its value is “+”.

`CC(=O)NC(CCCNC(=N)N)C(=O)NC(CC(C)C)C(=O)NC(CNC(=O)/C=C/c1ccccc1)C(C)C` (centres unmarked) [Acetyl] was tested. Which “Activity Anti-bacterial” value (bacteria; [6]) did it give?
The value was “+”.

For `CC(C)CC(NC(=O)C(CCCNC(=N)N)NC(=O)OCc1ccccc1)C(=O)NC(CNC(=O)/C=C/c1ccccc1)C(C)C` (centres unmarked) [Benzyloxtcarbonyl], which “Activity Anti-bacterial” value (bacteria; [6]) is on record?
The value was “+”.

`CC(C)CC(NC(=O)C(CCCNC(=N)N)NC(=O)OCc1ccccc1)C(=O)NC(CNC(=O)CCl)C(C)C` (centres unmarked) [Chloroacetyl] was tested. Which “Activity Anti-bacterial” value (bacteria; [6]) did it give?
Its value is “+”.

`CC(C)CC(NC(=O)C(CCCNC(=N)N)NC(=O)CCc1ccccc1)C(=O)NC(CNC(=O)/C=C/c1ccccc1)C(C)C` (centres unmarked) [Compound 3-phenylpropionyl] was tested. Which “Activity Anti-bacterial” value (bacteria; [6]) did it give?
Its value is “+”.

`CC(C)CC(NC(=O)C(CCCNC(=N)N)NC(=O)CCCc1ccccc1)C(=O)NC(CNC(=O)/C=C/c1ccccc1)C(C)C` (centres unmarked) [Compound 4-phenylbutyryl] was tested. Which “Activity Anti-bacterial” value (bacteria; [6]) did it give?
Its value is “+”.

With `CC(C)CC(NC(=O)C(CCCNC(=N)N)NC(=O)OCc1ccccc1)C(=O)NC(CNC(=O)C=Cc1ccc(-c2ccccc2)cc1)C(C)C` (centres unmarked) [Compound 4-phenylcinnamoyl] as the compound, how does the “Activity Anti-bacterial” value (bacteria; [6]) read?
Its value is “+”.

For `CC(C)CC(NC(=O)C(CCCNC(=N)N)NC(=O)OCc1ccccc1)C(=O)NC(CNC(=O)[C@H](Br)Cc1ccccc1)C(C)C` (stereo partly drawn) [Compound D-2-bromo-3-phenylpropionyl], which “Activity Anti-bacterial” value (bacteria; [6]) is on record?
Its value is “+”.

With `CC(C)CC(NC(=O)C(CCCNC(=N)N)NC(=O)OCc1ccccc1)C(=O)NC(CNC(=O)[C@H](O)Cc1ccccc1)C(C)C` (stereo partly drawn) [Compound D-2-hydroxy-3-phenylpropionyl] as the compound, how does the “Activity Anti-bacterial” value (bacteria; [6]) read?
Its value is “+”.

`CC(C)CC(NC(=O)C(CCCNC(=N)N)NC(=O)OCc1ccccc1)C(=O)NC(CNC(=O)[C@@H](Br)Cc1ccccc1)C(C)C` (stereo partly drawn) [Compound L-2-bromo-3-phenylpropionyl] was tested. Which “Activity Anti-bacterial” value (bacteria; [6]) did it give?
The value was “+”.

With `CC(C)CC(NC(=O)C(CCCNC(=N)N)NC(=O)OCc1ccccc1)C(=O)NC(CNC(=O)[C@@H](O)Cc1ccccc1)C(C)C` (stereo partly drawn) [Compound L-2-hydroxy-3-phenylpropionyl] as the compound, how does the “Activity Anti-bacterial” value (bacteria; [6]) read?
The value was “+”.

Which “Activity Anti-bacterial” value (bacteria; [6]) does the source give for `CC(C)CC(NC(=O)C(CCCNC(=N)N)NC(=O)Cc1ccccc1)C(=O)NC(CNC(=O)/C=C/c1ccccc1)C(C)C` (centres unmarked) [Phenylacetyl] here?
Its value is “+”.

`CC(C)CC(NC(=O)C(CCCNC(=N)N)NC(=O)OCc1ccccc1)C(=O)NC(CNC(=O)C#Cc1ccccc1)C(C)C` (centres unmarked) [Phenylpropiolyl] was tested. Which “Activity Anti-bacterial” value (bacteria; [6]) did it give?
Its value is “+”.

With `CC(C)CC(NC(=O)C(CCCNC(=N)N)NC(=O)OCc1ccccc1)C(=O)NC(CNC(=O)Cc1ccccc1)C(C)C` (centres unmarked) [n = 1] as the compound, how does the “Activity Anti-bacterial” value (bacteria; [6]) read?
Its value is “+”.

Which “Activity Anti-bacterial” value (bacteria; [6]) does the source give for `CC(C)CC(NC(=O)C(CCCNC(=N)N)NC(=O)OCc1ccccc1)C(=O)NC(CNC(=O)CCc1ccccc1)C(C)C` (centres unmarked) [n = 2] here?
The value was “+”.

For `CC(C)CC(NC(=O)C(CCCNC(=N)N)NC(=O)OCc1ccccc1)C(=O)NC(CNC(=O)/C=C/Cc1ccccc1)C(C)C` (stereo not drawn) [trans-3-benzylacroyl], which “Activity Anti-bacterial” value (bacteria; [6]) is on record?
The value was “+”.

How did the “Activity Anti-bacterial” value (bacteria; [6]) turn out when `CC(C)CC(NC(=O)C(CCCNC(=N)N)NC(=O)OCc1ccccc1)C(=O)NC(CNC(=O)/C=C/S(=O)(=O)Cc1ccccc1)C(C)C` (stereo not drawn) [trans-3-benzylsulphonylacroyl] was run?
Its value is “+”.

`CC(C)CC(NC(=O)C(CCCNC(=N)N)NC(=O)OCc1ccccc1)C(=O)NC(CNC(=O)/C=C/c1ccccc1)C(C)C` (stereo not drawn) [trans-cinnamoyl] was tested. Which “Activity Anti-viral” value (virus) did it give?
The value was “+”.

How did the “Activity Anti-bacterial” value (bacteria; [7]) turn out when “Mpa-Phe-Arg-Leu-Val-Phe-Cys-NH2 ([Mpa]FRLVFC-NH2; cysteine pairing not given here) [footnote: Mpa-Phe indicates 3-phenylpropionyl]” was run?
The value was “+”.

“Z-Arg-Leu-Val-Phe-NH2 ({code Z}-RLVF-NH2; reading uncertain; also: printed as Z-Arg-Leu-Val-Phe-NH2)” was tested. Which “Activity Anti-bacterial” value (bacteria; [7]) did it give?
The value was “+”.

For Z-Arg-Leu-Val-cinnamoylamide, which “Activity Anti-bacterial” value (bacteria; [7]) is on record?
Its value is “+”.

How did the “Activity Anti-bacterial” value (bacteria; [7]) turn out when “cyclo(D-Tyr-Arg-Leu-Val-D-Tyr-Arg-Leu-Val) (chain 1 [dY]RLV; chain 2 [dY]RLV; also: two chains joined into one cyclic octapeptide, head-to-tail to a chain's N/C-terminus)” was run?
The value was “+”.

cyclo(FRLVF[Orn]LV) was tested. Which “Activity Anti-bacterial” value (bacteria; [7]) did it give?
The value was “+”.

Which “Activity Anti-bacterial” value (bacteria; [7]) does the source give for cyclo(F[Orn]LVF[Orn]LV) here?
Its value is “+”.

With “cyclo(Phe-Arg-Leu-Val-Phe-Arg-Leu-Val) (FRLVFRLV; cyclic; printed: Phe-Arg-Leu-Val-Phe-Arg-Leu-Val)” as the compound, how does the “Activity Anti-bacterial” value (bacteria; [7]) read?
The value was “+”.

How did the “Activity Anti-bacterial” value (bacteria; [7]) turn out when “cyclo(Tyr-Arg-Leu-Val-Tyr-Arg-Leu-Val) (YRLVYRLV; cyclic; printed: Tyr-Arg-Leu-Val-Tyr-Arg-Leu-Val)” was run?
Its value is “+”.

For cyclo([Phg]RLV[Phg]RLV), which “Activity Anti-bacterial” value (bacteria; [7]) is on record?
The value was “+”.

With cyclo([dPhg]RLV[dPhg]RLV) as the compound, how does the “Activity Anti-bacterial” value (bacteria; [7]) read?
Its value is “+”.
